Assay results reported in the supplement of paper PMC10307832.

Legend:
Experiment in all cases: relative viability (nuclei count vs DMSO), 5 days (fraction); higher = more cells survive
Decitabine + Tozasertib = compound: Nc1ncn([C@H]2C[C@H](O)[C@@H](CO)O2)c(=O)n1 [Decitabine] + Cc1cc(Nc2cc(N3CCN(C)CC3)nc(Sc3ccc(NC(=O)C4CC4)cc3)n2)n[nH]1 [Tozasertib] (partner 0.1 µM)
Outline: (§1)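 Five library-drug doses in √10 steps were combined with a fixed anchor-drug dose, or a single drug was given alone, by pin tool to lung cancer cell lines in 1536-well plates the day after seeding. Nuclei were stained and counted after 5 days. Relative viability is the nuclei count in treated wells over that in vehicle wells, taken as the median of duplicate plates.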

[1] = compound: O=C(C[C@H]1NCCC[C@@H]1O)Cn1cnc2cc(Br)c(Cl)cc2c1=O (racemic) [Halofuginone] + CC1(C)CCC(c2ccc(Cl)cc2)=C(CN2CCN(c3ccc(C(=O)NS(=O)(=O)c4ccc(N[C@H](CCN5CCOCC5)CSc5ccccc5)c(S(=O)(=O)C(F)(F)F)c4)cc3)CC2)C1 [Navitoclax] (partner 0.5 µM)
Outline: as §1

Cediranib + Trametinib = compound: COc1cc2c(Oc3ccc4[nH]c(C)cc4c3F)ncnc2cc1OCCCN1CCCC1 [Cediranib] + CC(=O)Nc1cccc(-n2c(=O)n(C3CC3)c(=O)c3c(Nc4ccc(I)cc4F)n(C)c(=O)c(C)c32)c1 [Trametinib] (partner 0.02 µM)
Outline: as §1

Decitabine + Bortezomib = compound: Nc1ncn([C@H]2C[C@H](O)[C@@H](CO)O2)c(=O)n1 [Decitabine] + CC(C)C[C@H](NC(=O)[C@H](Cc1ccccc1)NC(=O)c1cnccn1)B(O)O [Bortezomib] (partner 0.002 µM)
Outline: as §1

Cell Line | relative viability (Decitabine + Tozasertib; first compound 0.04 µM) | relative viability (Decitabine + Tozasertib; first compound 0.1265 µM) | relative viability (Decitabine + Tozasertib; first compound 0.4 µM) | relative viability (Decitabine + Tozasertib; first compound 1.265 µM) | relative viability (Decitabine + Tozasertib; first compound 4 µM) | relative viability ([1]; first compound 0.001 µM) | relative viability ([1]; first compound 0.003162 µM) | relative viability ([1]; first compound 0.01 µM) | relative viability ([1]; first compound 0.03162 µM) | relative viability ([1]; first compound 0.1 µM) | relative viability (Cediranib + Trametinib; first compound 0.04 µM) | relative viability (Cediranib + Trametinib; first compound 0.1265 µM) | relative viability (Cediranib + Trametinib; first compound 0.4 µM) | relative viability (Cediranib + Trametinib; first compound 1.265 µM) | relative viability (Cediranib + Trametinib; first compound 4 µM) | relative viability (Decitabine + Bortezomib; first compound 0.04 µM) | relative viability (Decitabine + Bortezomib; first compound 0.1265 µM) | relative viability (Decitabine + Bortezomib; first compound 0.4 µM) | relative viability (Decitabine + Bortezomib; first compound 1.265 µM) | relative viability (Decitabine + Bortezomib; first compound 4 µM)
HCC-366 | 0.0988 | 0.104 | 0.0711 | 0.0439 | 0.0387 | 1.05 | 1.07 | 1.04 | 1.04 | 0.0551 | 0.384 | 0.404 | 0.301 | 0.327 | 0.398 | 0.971 | 0.788 | 0.421 | 0.197 | 0.121
NCI-H2126 | 0.648 | 0.606 | 0.425 | 0.451 | 0.399 | 0.87 | 0.822 | 0.824 | 0.824 | 0.831 | 0.575 | 0.551 | 0.551 | 0.578 | 0.531 | 0.984 | 0.975 | 0.648 | 0.655 | 0.591
SK-LU-1 | 0.283 | 0.288 | 0.214 | 0.238 | 0.24 | 0.821 | 0.895 | 0.874 | 1.42 | 0.275 | 0.547 | 0.377 | 0.445 | 0.381 | 0.481 | 0.781 | 0.849 | 0.251 | 0.516 | 0.503
HCC-78 | 0.443 | 0.488 | 0.369 | 0.38 | 0.291 | 0.75 | 0.758 | 0.725 | 0.817 | 0.435 | 0.742 | 1.02 | 0.721 | 0.915 | 0.919 | 0.52 | 0.517 | 0.435 | 0.385 | 0.328
LCLC-97TM1 | 0.167 | 0.17 | 0.129 | 0.11 | 0.0997 | 0.501 | 0.476 | 0.363 | 0.327 | 0.212 | 0.196 | – | 0.207 | 0.187 | 0.214 | 0.202 | 0.268 | 0.123 | 0.124 | 0.11
NCI-H838 | 0.196 | 0.236 | 0.188 | 0.191 | 0.176 | 1.17 | 1.24 | 0.994 | 0.954 | 0.208 | 0.508 | 0.494 | 0.491 | 0.514 | 0.705 | 0.528 | 0.381 | 0.293 | 0.296 | 0.243
NCI-H520 | 0.402 | 0.444 | 0.386 | 0.352 | 0.308 | 1.18 | 1.05 | 1.03 | 0.835 | 0.346 | 0.783 | 0.435 | 0.54 | 0.483 | 0.521 | 0.628 | 0.595 | 0.374 | 0.297 | 0.221
NCI-H2347 | 0.415 | 0.486 | 0.493 | 0.358 | 0.347 | 0.814 | 0.838 | 0.859 | 0.845 | 0.589 | 0.316 | 0.282 | 0.233 | 0.286 | 0.318 | – | 0.768 | 0.844 | 0.525 | 0.572
NCI-H441 | 0.296 | 0.269 | 0.208 | 0.234 | 0.317 | 0.607 | 0.674 | 0.562 | 0.586 | 0.34 | 0.631 | 0.504 | 0.408 | 0.483 | 0.399 | 0.228 | 0.26 | 0.231 | 0.198 | 0.198
NCI-H2405 | 0.521 | 0.598 | 0.526 | 0.388 | 0.337 | 0.986 | 0.855 | 0.878 | 0.784 | 0.542 | 0.647 | 0.941 | 0.562 | 0.636 | 0.614 | 0.88 | 0.905 | 0.828 | 0.66 | 0.538
HCC-15 | 0.308 | 0.388 | 0.345 | 0.213 | 0.175 | 0.704 | 0.732 | 0.686 | 0.651 | 0.593 | 0.389 | – | 0.362 | 0.337 | 0.404 | 0.936 | 0.891 | 0.381 | 0.467 | 0.493
